Read-outs that look alike come from different tables or passages of the source.
Columns and labels:
KK mice = experiment: Hypoglycemic effect in diabetic KK mice (Test Example 1); assay type: in vivo; conditions: Mus musculus, po, 72 h; male KK mice, diet admixture containing 0.03% of the compound, 3 days, plasma glucose vs control group; read-out: Hypoglycemic rate (%)
Description: Six-week-old male KK mice were purchased from CLEA Japan, Inc. and then were fed until 15 to 20 weeks old to develop diabetes. The mice were individually fed during the adaptation period and the test period, and water and feed (FR2, Funabashi Farm) were freely ingested.
At the start of the experiment, after body weight measurement, blood was collected from the tail vein of the mice into a heparin-coated glass tube and centrifuged, and then plasma was separated. The glucose level in the plasma was measured by Glucoloader GXT (A&T Corp.), and individuals having a plasma glucose level of about 350 mg/dl or more were selected. The mice were grouped, each group having 3 to 4 mice, to make the average body weight and the average plasma glucose level similar. Each compound was administered to a compound group with a diet admixture containing 0.03% of the compound. A separate group in which the mice were fed only with diet was a control group.
The experiment period (drug administration period) was three days. The grouping day was the 0th day. On the 3rd day, the body weight was measured and blood was collected from the tail vein to measure the plasma glucose level.
The hypoglycemic rate was determined by the following formula.
Hypoglycemic rate=[(Control group blood glucose level−Compound-administered group blood glucose level)/Control group blood glucose level]×100

human PPARγ2 = molecular target: T1, human PPARγ2 (Homo sapiens, UniProt P37231); experiment: Evaluation of PPARγ modulator activity, PPRE luciferase reporter in MG63 cells (Test Example 2); assay type: cell-based; conditions: for Emax: MG-63; for IC50: in the presence of Compound A, concentration representing (100−Imax)/2; for Imax (%): maximum inhibition of luciferase activity in the presence of Compound A
T1 construct: expressed in transfected cells; host or cells: human osteosarcoma cell line MG63, transiently transfected with pSG5-hPPARγ and pGV-P2-PPRE
T1 sequence (P37231 1-505): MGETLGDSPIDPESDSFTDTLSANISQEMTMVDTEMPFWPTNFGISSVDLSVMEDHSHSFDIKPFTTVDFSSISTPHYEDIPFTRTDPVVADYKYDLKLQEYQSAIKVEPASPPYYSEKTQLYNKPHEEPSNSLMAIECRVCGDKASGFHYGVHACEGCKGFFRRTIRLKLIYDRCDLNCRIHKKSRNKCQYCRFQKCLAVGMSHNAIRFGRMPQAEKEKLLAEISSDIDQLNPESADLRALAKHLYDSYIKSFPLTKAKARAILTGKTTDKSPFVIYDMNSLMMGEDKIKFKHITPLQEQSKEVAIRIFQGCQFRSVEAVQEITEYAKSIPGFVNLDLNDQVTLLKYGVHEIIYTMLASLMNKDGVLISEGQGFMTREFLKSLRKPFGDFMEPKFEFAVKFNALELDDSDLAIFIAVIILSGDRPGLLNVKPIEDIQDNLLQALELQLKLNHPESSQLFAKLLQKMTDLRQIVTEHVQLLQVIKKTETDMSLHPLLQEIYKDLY
Method: In FIG. 3, the luciferase activity of the positive control group is defined as 100% and the luciferase activity of the control group is defined as 0%.
Polymerase chain reaction (hereinafter “PCR”) primers were designed based on the human PPARγ2 gene sequence (GenBANK accession No. D83233). The recognition sequences for restriction enzyme BglII were added to upstream and downstream regions of a gene encoding human PPARγ2 protein, in which the recognition sequences were necessary for inserting the gene into the restriction site BamHI of the expression plasmid pSG5 (Stratagene) for the gene.
The recognition sequence for restriction enzyme NheI was added to S2 and the recognition sequence for restriction enzyme XhoI was added to AS2 for insertion into the reporter plasmid pGV-P2 (Toyo Ink Mfg. Co., Ltd.).
PCR was carried out using thermostable DNA polymerase Ex-Taq (Takara Shuzo Co., Ltd.) with a human adipose tissue-derived cDNA library (Clontech) as a template and the DNA oligomers S1 and AS1 obtained in Procedure 1 as PCR primers. […] A cycle was repeated 30 times consisting of incubation at 94° C. for one minute, incubation at 55° C. for 30 seconds and incubation at 72° C. for 30 seconds. The resulting DNA fragment of about 1500 bp was partially cleaved by restriction enzyme BglII and inserted into the restriction site BamHI of pSG5 to obtain a human PPARγ expression plasmid pSG5-hPPARγ.
A vector pGV-P2 digest was prepared by digestion with restriction enzymes NheI and XhoI and purification by 1.0% agarose gel electrophoresis. The DNA oligomers S2 and AS2 obtained in Procedure 2 were mixed, incubated in a hot water bath at 94° C. for one minute, and then incubated at 25° C. for one hour to form a double-stranded DNA with S2 and AS2 annealed. Thereafter, the terminals of the double-stranded DNA were phosphorylated using DNA polynucleotide kinase (Toyobo Co., Ltd.) and then ligated to the previously prepared pGV-P2 digest using the restriction sites NheI and XhoI to obtain a reporter plasmid pGV-P2-PPRE having a PPAR response sequence.
The gene was transiently transferred to the human osteosarcoma cell line MG63, and then cells were harvested.
Thereafter, DMSO diluted 20-fold with 10% α-MEM was added to the control group and the positive control group at 5 μl/well. 10% α-MEM was added to the test compound-added group at 95 μl/well. Thereafter, the test compound diluted to various concentrations with DMSO was diluted 20-fold with 10% α-MEM; this was added to the test compound-added group at 5 μl/well.
Thereafter, DMSO was diluted 20-fold with 10% α-MEM; this was added to the control group and the positive control group at 5 μl/well. […] Thereafter, the test compound diluted to various concentrations with DMSO was diluted 20-fold with 10% α-MEM; this was added to the test compound-added group at 5 μl/well.
The cells prepared in Procedures 6 and 7 were cultured for 24 hours and then the medium was removed. […] The mixture was left to stand at room temperature for about 10 minutes and then stirred with a micromixer (TAITEC E-36). The luciferase activity was measured using Analyst (Molecular Devices) and a dose-dependent curve was drawn.
The IC50, Imax, EC50 and Emax of the test compound to be determined are defined as follows.
Here, the concentration of the test compound representing Emax/2 is calculated as EC50. The concentration of the test compound representing (100−Imax)/2 is calculated as IC50. The IC50 and EC50 calculated in this manner were used for evaluating the PPARγ modulator activity.

[1] = maximum luciferase activity by test compound alone, positive control (Compound A) 100%, control 0%, read-out: Emax (%)
[2] = MG63 cells, luciferase activity
[3] = test compound alone, concentration representing Emax/2, MG63 cells, luciferase activity, read-out: EC50

Structure (SMILES) | inhibition in vivo at 0.03 % in diet (KK mice) | Emax (human PPARγ2; [1]) | IC50 (human PPARγ2; [2]) | Imax (%) (human PPARγ2) | EC50 (human PPARγ2; [3]) | EC50 (human PPARγ2) | Emax (human PPARγ2)
Cc1cc(Oc2ccc3nc(COc4cccc(C(=O)O)c4)n(C)c3c2)cc(C)c1N.Cl.Cl [Example 2, 3-{[6-(4-Amino-3,5-dimethylphenoxy)-1-methyl-1H-benzimidazol-2-yl]methoxy}benzoic acid dihydrochloride] | 37% | 70% | 56.1 nM | −44% | 3.28 nM |  | 
Cl.Cn1c(COc2cccc(C(=O)O)c2)nc2ccc(Oc3cccc(F)c3)cc21 [Example 8, 3-{[6-(3-Fluorophenoxy)-1-methyl-1H-benzimidazol-2-yl]methoxy}benzoic acid hydrochloride] | 29% | 39% | 73.3 nM | −34% | 7.72 nM |  | 
Cl.Cn1c(COc2cccc(C(=O)O)c2)nc2ccc(Oc3ccc(Cl)c(F)c3)cc21 [Example 10, 3-{[6-(4-Chloro-3-fluorophenoxy)-1-methyl-1H-benzimidazol-2-yl]methoxy}benzoic acid hydrochloride] | 35% | 42% | 33.2 nM | −50% | 2.06 nM |  | 
Cl.Cn1c(COc2cccc(C(=O)O)c2)nc2ccc(Oc3ccc(F)c(Cl)c3)cc21 [Example 12, 3-{[6-(3-Chloro-4-fluorophenoxy)-1-methyl-1H-benzimidazol-2-yl]methoxy}benzoic acid hydrochloride] | 30% | 42% | 40.4 nM | −43% | 2.34 nM |  | 
Cl.Cn1c(COc2cccc(C(=O)O)c2)nc2ccc(Oc3ccccc3)cc21 [Example 14, 3-[(1-Methyl-6-phenoxy-1H-benzimidazol-2-yl)methoxy]benzoic acid hydrochloride] | 33% |  |  | −35% |  | 51.7 nM | 54%
Cl.Cl.Cn1c(COc2cccc(C(=O)O)c2)nc2ccc(Oc3ccccc3)nc21 [Example 16, 3-[(3-Methyl-5-phenoxy-3H-imidazo[4,5-b]pyridin-2-yl)methoxy]benzoic acid dihydrochloride] | 60% | 46% | 402 nM | −44% | 26.4 nM |  | 

From US20100048564A1, “FUSED BICYCLIC HETEROARYL DERIVATIVE” (DAIICHI SANKYO COMPANY, LIMITED, priority 2007, published 2010)
